# From paper PMC3823594, “Conformational Changes Underlying Pore Dilation in the Cytoplasmic Domain of Mammalian Inward Rectifier K^+ Channels” (PLoS ONE, 2013)
# Substitutions are numbered along the chain they refer to.
# Assays:
# Assay in all cases: Two-electrode voltage clamp, ACh-dependent (m2R-dependent) K+ current activation
# Format in all cases: cell-based
# Kir3.2 WT = target: T1, Kir3.2 WT (Mus musculus, UniProt P48542); conditions: Kir3.2 WT with porcine m2R in Xenopus oocytes; −120 mV; Hill equation fit
# T1 sequence (P48542 1-425): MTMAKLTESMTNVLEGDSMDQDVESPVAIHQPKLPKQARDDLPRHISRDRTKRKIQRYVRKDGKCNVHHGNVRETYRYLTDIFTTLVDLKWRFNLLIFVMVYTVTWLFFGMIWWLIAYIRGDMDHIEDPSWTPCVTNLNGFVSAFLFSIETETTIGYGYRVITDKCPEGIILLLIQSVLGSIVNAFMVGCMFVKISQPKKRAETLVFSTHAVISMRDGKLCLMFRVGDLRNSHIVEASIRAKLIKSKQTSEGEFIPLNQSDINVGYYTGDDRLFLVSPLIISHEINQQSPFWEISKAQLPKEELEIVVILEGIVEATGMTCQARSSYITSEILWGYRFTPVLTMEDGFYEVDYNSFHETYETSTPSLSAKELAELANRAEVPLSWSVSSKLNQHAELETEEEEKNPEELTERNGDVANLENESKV
# T1 sequence (P06199 1-466 partner): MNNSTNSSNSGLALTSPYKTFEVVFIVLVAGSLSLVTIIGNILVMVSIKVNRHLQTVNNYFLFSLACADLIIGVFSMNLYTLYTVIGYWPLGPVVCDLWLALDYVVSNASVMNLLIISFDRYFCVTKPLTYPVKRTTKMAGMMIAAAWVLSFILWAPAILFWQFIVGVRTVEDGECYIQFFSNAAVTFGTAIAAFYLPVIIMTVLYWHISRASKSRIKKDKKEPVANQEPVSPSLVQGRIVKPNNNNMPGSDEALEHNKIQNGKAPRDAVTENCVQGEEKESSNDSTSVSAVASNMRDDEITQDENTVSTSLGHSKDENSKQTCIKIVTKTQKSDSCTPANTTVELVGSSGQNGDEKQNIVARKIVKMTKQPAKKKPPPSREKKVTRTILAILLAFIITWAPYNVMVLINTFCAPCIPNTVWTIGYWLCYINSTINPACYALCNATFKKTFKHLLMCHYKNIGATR
# From the text: (§1) The mouse Kir3.2d isoform was subjected to functional analyses. The amino acid numbers correspond to the longest mouse Kir3.2 isoform. Point mutations were introduced using the QuikChange site-directed mutagenesis kit (Stratagene, La Jolla, CA), and the presence of the mutations was confirmed by direct DNA sequencing. The care of Xenopus laevis was in accordance with the guideline of the Institute of Experimental Animal Sciences, Osaka University. The protocol was approved by the Animal Experiment Committee of Osaka University. The frogs were deeply anesthetized by immersing in 0.2% tricaine methanesulfonate for 20 min at 18°C. A portion of an ovary lobe was surgically removed and incubated with collagenase to remove follicular cells. The oocytes were injected with the cRNAs of Kir3.2 and porcine m2-muscarinic receptor (m2R), and maintained in modified Barth’s solution at 18°C with daily solution changes. Electrophysiological studies were undertaken 48–72 h later at room temperature (20–25°C). Two-electrode voltage-clamp recordings from oocytes were performed using a GeneClamp 500B amplifier (Axon Instruments, Sunnyvale, CA). […] The bath solution contained 40 mM KCl, 50 mM NaCl, 3 mM MgCl2, 0.15 mM niflumic acid, and 5 mM HEPES-KOH (pH 7.4). The currents were recorded in the absence or presence of various concentrations of acetylcholine (ACh). Ba^2+ (3 mM) was added at the end of the recording to estimate the endogenous leak current. The data are expressed as mean values ± standard error of the mean. For the quantitative estimation of ACh-dependent current responses of the wild-type (WT) and mutant channels, the current amplitudes at the end of test pulses at each ACh concentration ([ACh]) were fitted using the following equation:
# (§2) I=min+[(max−min)/(1+(EC50/[ACh])^nH)]
# (§3) where I is the current amplitude measured at the [ACh], n H is the Hill coefficient, and EC50 is the concentration that induces 50% of the maximal response. […] The values of n H and EC50 were calculated using a non-linear least-squares best fit (SigmaPlot 9; Systat Software). Statistical analyses were performed by one-way ANOVA with post-hoc tests.
# Kir3.2 M313A = target: T2, Kir3.2 M313A (Mus musculus, UniProt P48542, I313A); conditions: Kir3.2 M313A with porcine m2R in Xenopus oocytes; −120 mV; Hill equation fit
# T2 sequence (P48542 19-425 I313A): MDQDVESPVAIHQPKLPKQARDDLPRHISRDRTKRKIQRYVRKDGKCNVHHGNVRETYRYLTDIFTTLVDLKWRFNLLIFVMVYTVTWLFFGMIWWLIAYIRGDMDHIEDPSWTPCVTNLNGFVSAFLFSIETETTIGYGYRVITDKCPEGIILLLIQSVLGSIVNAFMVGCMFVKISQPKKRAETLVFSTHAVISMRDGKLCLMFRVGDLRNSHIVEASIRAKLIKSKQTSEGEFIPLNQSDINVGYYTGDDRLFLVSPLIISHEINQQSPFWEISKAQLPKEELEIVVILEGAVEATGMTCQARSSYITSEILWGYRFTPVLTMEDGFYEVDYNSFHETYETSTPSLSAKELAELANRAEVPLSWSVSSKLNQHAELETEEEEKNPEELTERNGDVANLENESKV
# T2 sequence (P06199 1-466 partner): T1 sequence (P06199 1-466 partner)
# From the text: as §1, §2, §3
# Kir3.2 E236G = target: T3, Kir3.2 E236G (Mus musculus, UniProt P48542, E236G); conditions: Kir3.2 E236G with porcine m2R in Xenopus oocytes; −120 mV; Hill equation fit
# T3 sequence (P48542 19-425 E236G): T2 sequence (P48542 19-425 I313A) with E218G, A295I
# T3 sequence (P06199 1-466 partner): T1 sequence (P06199 1-466 partner)
# From the text: as §1, §2, §3
compound,measurement,setting,value
"CC(=O)OCC[N+](C)(C)C [ACh, acetylcholine]",Hill coefficient,Kir3.2 WT,0.83 ± 0.06
same,Hill coefficient,Kir3.2 M313A,1.05 ± 0.08
same,Hill coefficient,Kir3.2 E236G,1.10 ± 0.04
